The values that follow come from EP2406206B1, “TETRAHYDRONAPHTHALEN-2-OL DERIVATIVES” (MSD Oss B.V., priority 2009, dated 2010).

Each structure is given as a SMILES string.

Data set [1] deals with human estrogen receptor β receptor (hERβ) (Homo sapiens, UniProt Q92731). As to the kind of experiment: ERβ transactivation bioassay in recombinant CHO cells (rat oxytocin promoter, luciferase reporter). It counts as cell-based. The note with it: for ERβ/ERα ratio: ERβ agonistic selectivity over ERα, transactivation data; for EC50: transactivation of luciferase via hERβ in CHO cells, read-out: ERβ agonistic EC50; for ERβ eudismic ratio: ratio of the activities of the eutomer and the distomer on ERβ. Here is the method: The estrogenic and antiestrogenic activity of compounds was determined in an in vitro bioassay with recombinant Chinese hamster ovary (CHO) cells stably co-transfected with the human estrogen receptor α (hERα) or β receptor (hERβ), the rat oxytocin promoter (RO) and the luciferase reporter gene (LUC). The estrogenic activity of a test compound to stimulate the transactivation of the enzyme luciferase mediated via the estrogen receptors hERα or hERβ is expressed in nM. The assay was performed as described by De Gooyer et al., Steroids 68 (2003), 21-30. Table 7. ERβ and ERα transactivation data
A general note: A reporter such as luciferase makes a cellular process visible.

The nature of data set [2]: metabolic stability in human hepatocytes. It counts as in vitro ADME. Particulars: cryopreserved human hepatocytes in suspension, tetrahydronaphthalen-2-ol, 37°C, sampled 0-120 min, LC-MS/MS, read-out: Human hepatocyte T1/2. Here is the method:
A number of compounds 9, 11 and 12 were tested on metabolic stability in human hepatocytes. The hepatic stability was compared to corresponding chroman compounds 25, 26 or 27 (see structures below).
Test compounds were diluted to 3 µM in incubation medium. Then 40 µl of the 3 µM test compounds was pipetted into a 96 well microtiter plate (flat bottom). Hepatocytes (stored at -140 °C) were thawed in a 37°C water bath. The cells were resuspended into pre-warmed thawing medium and were centrifuged for 5 minutes at 50g at room temperature. The supernatant was discarded and the remaining cell pellet was resuspended in warm incubation medium and diluted to 7.5 E5 cells/ml. Then 80 µl of the cell suspension was added to each well of the 96 well microtiter plate containing the test compounds. The resulting mixture was incubated at 37°C and was sampled at t=0, 5, 30, 60, and 120 min. The samples were analyzed by LC-MS/MS to determine the content of unchanged test compound. Based on the rate of reduction of the content of test compound over time, the half-live (T1/2) was calculated. Metabolic stability in human hepatocytes

human estrogen receptor β receptor (hERβ), sequence (Q92731 whole entry): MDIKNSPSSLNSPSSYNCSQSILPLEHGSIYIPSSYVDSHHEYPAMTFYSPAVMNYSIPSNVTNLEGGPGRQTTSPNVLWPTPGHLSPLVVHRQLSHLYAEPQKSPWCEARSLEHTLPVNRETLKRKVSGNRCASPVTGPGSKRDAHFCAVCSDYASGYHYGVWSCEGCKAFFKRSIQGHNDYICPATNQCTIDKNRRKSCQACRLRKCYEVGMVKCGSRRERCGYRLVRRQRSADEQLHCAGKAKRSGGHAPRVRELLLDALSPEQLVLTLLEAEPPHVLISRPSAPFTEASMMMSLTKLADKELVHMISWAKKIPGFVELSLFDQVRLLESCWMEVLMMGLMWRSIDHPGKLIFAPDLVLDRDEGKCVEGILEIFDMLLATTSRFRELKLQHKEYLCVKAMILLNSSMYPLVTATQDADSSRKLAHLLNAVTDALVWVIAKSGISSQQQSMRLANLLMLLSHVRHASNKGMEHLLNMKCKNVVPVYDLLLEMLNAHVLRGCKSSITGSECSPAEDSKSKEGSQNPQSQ

On to `CC1C(c2ccc(O)cc2)Cc2ccc(O)cc2C1Cc1ccccc1F` (racemic) [Compound 9a, 8-(2-fluorobenzyl)-6-(4-hydroxyphenyl)-7-methyl-5,6,7,8-tetrahydronaphthalen-2-ol], for which, in data set [1], the ERβ/ERα ratio amounted to 193 and the EC50 (in general, the concentration giving half of the maximal effect) amounted to 0.45 nM.

For the molecule `CCC1C(c2ccc(O)cc2)Cc2ccc(O)cc2C1Cc1ccccc1F` (racemic) [Compound 9b, 8-(2-fluorobenzyl)-6-(4-hydroxyphenyl)-7-ethyl-5,6,7,8-tetrahydronaphthalen-2-ol], in data set [1], the ERβ/ERα ratio is 77 and the 50% effective concentration (EC50) is 0.35 nM. The half-life at 1 µM in data set [2] came out at 1.17 h.

In the case of `CCCC1C(c2ccc(O)cc2)Cc2ccc(O)cc2C1Cc1ccccc1F` (racemic) [Compound 9c, 8-(2-fluorobenzyl)-6-(4-hydroxyphenyl)-7-propyl-5,6,7,8-tetrahydronaphthalen-2-ol], in data set [1], the ERβ/ERα ratio was found to be 33 and the 50% effective concentration (EC50) was 0.4 nM.

For the molecule `CC1C(c2ccc(O)cc2)Cc2ccc(O)cc2C1Cc1ccccc1` (racemic) [Compound 9d, 8-benzyl-6-(4-hydroxyphenyl)-7-methyl-5,6,7,8-tetrahydronaphthalen-2-ol], in data set [1], the ERβ/ERα ratio is 51 and the concentration for a half-maximal effect (EC50) came to 0.68 nM.

For the molecule `CCC1C(c2ccc(O)cc2)Cc2ccc(O)cc2C1Cc1ccccc1` (racemic) [Compound 9e, 8-benzyl-7-ethyl-6-(4-hydroxyphenyl)-5,6,7,8-tetrahydronaphthalen-2-ol], in data set [1], the ERβ/ERα ratio is listed as 18 and the EC50 was 0.42 nM.

Regarding `CC1C(c2ccc(O)cc2)Cc2ccc(O)cc2C1Cc1cccc(F)c1` (racemic) [Compound 9f, 8-(3-fluorobenzyl)-6-(4-hydroxyphenyl)-7-methyl-5,6,7,8-tetrahydronaphthalen-2-ol], in data set [1], the ERβ/ERα ratio is above 33 and the EC50 came out at 3 nM.

Regarding `CC1C(c2ccc(O)cc2)Cc2ccc(O)cc2C1Cc1ccc(F)cc1` (racemic) [Compound 9g, 8-(4-fluorobenzyl)-6-(4-hydroxyphenyl)-7-methyl-5,6,7,8-tetrahydronaphthalen-2-ol], in data set [1], the ERβ/ERα ratio is above 43 and the EC50 amounted to 2.3 nM.

Take `CC1C(c2ccc(O)cc2)Cc2ccc(O)cc2C1Cc1cc(F)ccc1F` (racemic) [Compound 9h, 8-(2,5-difluorobenzyl)-6-(4-hydroxyphenyl)-7-methyl-5,6,7,8-tetrahydronaphthalen-2-ol]: in data set [1], the ERβ/ERα ratio is given as above 167 and the half-maximal effective concentration (EC50) came out at 0.6 nM.

`CC1C(c2ccc(O)cc2)Cc2ccc(O)cc2C1Cc1c(F)cccc1F` (racemic) [Compound 9i, 8-(2,6-difluorobenzyl)-6-(4-hydroxyphenyl)-7-methyl-5,6,7,8-tetrahydronaphthalen-2-ol]: in data set [1], the ERβ/ERα ratio is listed as above 102 and the EC50 came out at 0.98 nM.

For `CC1C(c2ccc(O)cc2)Cc2ccc(O)cc2C1Cc1ccccc1C#N` (racemic) [Compound 9j, 2-((7-hydroxy-3-(4-hydroxyphenyl)-2-methyl-1,2,3,4-tetrahydronaphthalen-1-yl)methyl)benzonitrile], in data set [1], the ERβ/ERα ratio was found to be 605 and the 50% effective concentration (EC50) was found to be 0.56 nM. Further, the half-life at 1 µM in data set [2] is 0.623 h.

Take `CCC1C(c2ccc(O)cc2)Cc2ccc(O)cc2C1Cc1ccccc1C#N` (racemic) [Compound 9k, 2-((2-ethyl-7-hydroxy-3-(4-hydroxyphenyl)-1,2,3,4-tetrahydronaphthalen-1-yl)methyl)benzonitrile]: in data set [1], the ERβ/ERα ratio was above 204 and the EC50 stood at 0.49 nM.

Consider `CC1C(c2ccc(O)cc2)Cc2ccc(O)cc2C1Cc1ccccc1Cl` (racemic) [Compound 9l, 8-(2-chlorobenzyl)-6-(4-hydroxyphenyl)-7-methyl-5,6,7,8-tetrahydronaphthalen-2-ol], for which, in data set [1], the ERβ/ERα ratio amounted to 339 and the EC50 is 0.33 nM.

In the case of `CCC1C(c2ccc(O)cc2)Cc2ccc(O)cc2C1Cc1ccc(O)cc1` (racemic) [Compound 9m, 7-ethyl-8-(4-hydroxybenzyl)-6-(4-hydroxyphenyl)-5,6,7,8-tetrahydronaphthalen-2-ol], in data set [1], the ERβ/ERα ratio was determined as 2 and the EC50 came to 31 nM.

Take `CCC1C(c2ccc(O)cc2F)Cc2ccc(O)cc2C1Cc1ccccc1F` (racemic) [Compound 9o, 7-ethyl-6-(2-fluoro-4-hydroxyphenyl)-8-(2-fluorobenzyl)-5,6,7,8-tetrahydronaphthalen-2-ol]: in data set [1], the ERβ/ERα ratio is given as 42 and the concentration for a half-maximal effect (EC50) is 0.17 nM. Also, the half-life at 1 µM in data set [2] stood at 1.22 h.

Regarding `CC1C(c2ccc(O)cc2F)Cc2ccc(O)cc2C1Cc1ccccc1F` (racemic) [Compound 9p, 6-(2-fluoro-4-hydroxyphenyl)-8-(2-fluorobenzyl)-7-methyl-5,6,7,8-tetrahydronaphthalen-2-ol], in data set [1], the ERβ/ERα ratio is recorded as above 333 and the concentration for a half-maximal effect (EC50) came to 0.3 nM. In addition, the half-life at 1 µM in data set [2] is above 2 h.

Regarding `Cc1cc(C2Cc3ccc(O)cc3C(Cc3ccccc3F)C2C)ccc1O` (racemic) [Compound 9r, 8-(2-fluorobenzyl)-6-(4-hydroxy-3-methylphenyl)-7-methyl-5,6,7,8-tetrahydronaphthalen-2-ol], in data set [1], the ERβ/ERα ratio was above 83 and the EC50 turned out to be 1.2 nM. For the same molecule, the half-life at 1 µM in data set [2] came out at 0.965 h.

`CC1C(c2ccc(O)cc2)Cc2ccc(O)c(F)c2C1Cc1ccccc1F` (racemic) [Compound 9s, 1-fluoro-8-(2-fluorobenzyl)-5,6,7,8-tetrahydro-6-(4-hydroxyphenyl)-7-methylnaphthalen-2-ol]: in data set [1], the ERβ/ERα ratio is above 21 and the EC50 came out at 4.7 nM. The half-life at 1 µM in data set [2] came to 1.61 h.

Turning to `CCC1C(c2ccc(O)cc2)Cc2ccc(O)cc2C1Cc1ccccc1C` (racemic) [Compound 9v, 7-ethyl-6-(4-hydroxyphenyl)-8-(2-methylbenzyl)-5,6,7,8-tetrahydronaphthalen-2-ol], in data set [1], the ERβ/ERα ratio was above 63 and the concentration giving a half-maximal response (EC50) worked out at 1.6 nM. Further, the half-life at 1 µM in data set [2] was 1.16 h.

Turning to `CCC1C(c2ccc(O)cc2)Cc2ccc(O)cc2C1Cc1ccc(F)cc1` (racemic) [Compound 9w, 7-ethyl-8-(4-fluorobenzyl)-6-(4-hydroxyphenyl)-5,6,7,8-tetrahydronaphthalen-2-ol], in data set [1], the ERβ/ERα ratio amounted to 12 and the 50% effective concentration (EC50) worked out at 0.91 nM.

With `CC1C(c2ccc(O)cc2)Cc2ccc(O)c(F)c2C1Cc1c(F)cccc1F` (racemic) [Compound 9y, 8-(2,6-difluorobenzyl)-1-fluoro-5,6,7,8-tetrahydro-6-(4-hydroxyphenyl)-7-methyl-naphthalen-2-ol], in data set [1], the ERβ/ERα ratio is above 8 and the EC50 was determined as 12 nM. Further, the half-life at 1 µM in data set [2] was determined as 1.83 h.

Regarding `C[C@H]1[C@@H](c2ccc(O)cc2)Cc2ccc(O)cc2[C@H]1Cc1c(F)cccc1F` (single isomer, unassigned) [Compound 11i], in data set [1], the ERβ/ERα ratio is on record as above 213, the ERβ eudismic ratio is reported as above 212 and the EC50 was 0.47 nM.

As to `C[C@H]1[C@@H](c2ccc(O)cc2)Cc2ccc(O)cc2[C@H]1Cc1ccccc1C#N` (single isomer, unassigned) [Compound 11j], in data set [1], the ERβ/ERα ratio was above 714, the ERβ eudismic ratio turned out to be 143 and the EC50 stood at 0.14 nM. The half-life at 1 µM in data set [2] is 0.49 h.

In the case of `C[C@@H]1[C@H](c2ccc(O)cc2)Cc2ccc(O)cc2[C@@H]1Cc1ccccc1F` (single isomer, unassigned) [Compound 12a], in data set [2], the half-life at 1 µM turned out to be 1.11 h.

Turning to `C[C@@H]1[C@H](c2ccc(O)cc2)Cc2ccc(O)cc2[C@@H]1Cc1c(F)cccc1F` (single isomer, unassigned) [Compound 12i], the half-life at 1 µM in data set [2] turned out to be 1.12 h.

Regarding `COc1ccccc1CC1c2cc(O)ccc2CC(c2ccc(O)cc2)C1C` (centres unmarked) [Compound 8n, 6-(4-hydroxyphenyl)-8-(2-methoxybenzyl)-7-methyl-5,6,7,8-tetrahydronaphthalen-2-ol], in data set [1], the ERβ/ERα ratio is reported as above 40 and the concentration for a half-maximal effect (EC50) came to 2.5 nM.
